Drawing on patent US11339130B1 (Blade Therapeutics, Inc., priority 2016, dated 2022), this text covers IC50 for 12 molecules.

For one assay, the target named is T1, Human Calpain 1/NS1 (Homo sapiens, UniProt P07384).
T1 sequence (P07384 1-714): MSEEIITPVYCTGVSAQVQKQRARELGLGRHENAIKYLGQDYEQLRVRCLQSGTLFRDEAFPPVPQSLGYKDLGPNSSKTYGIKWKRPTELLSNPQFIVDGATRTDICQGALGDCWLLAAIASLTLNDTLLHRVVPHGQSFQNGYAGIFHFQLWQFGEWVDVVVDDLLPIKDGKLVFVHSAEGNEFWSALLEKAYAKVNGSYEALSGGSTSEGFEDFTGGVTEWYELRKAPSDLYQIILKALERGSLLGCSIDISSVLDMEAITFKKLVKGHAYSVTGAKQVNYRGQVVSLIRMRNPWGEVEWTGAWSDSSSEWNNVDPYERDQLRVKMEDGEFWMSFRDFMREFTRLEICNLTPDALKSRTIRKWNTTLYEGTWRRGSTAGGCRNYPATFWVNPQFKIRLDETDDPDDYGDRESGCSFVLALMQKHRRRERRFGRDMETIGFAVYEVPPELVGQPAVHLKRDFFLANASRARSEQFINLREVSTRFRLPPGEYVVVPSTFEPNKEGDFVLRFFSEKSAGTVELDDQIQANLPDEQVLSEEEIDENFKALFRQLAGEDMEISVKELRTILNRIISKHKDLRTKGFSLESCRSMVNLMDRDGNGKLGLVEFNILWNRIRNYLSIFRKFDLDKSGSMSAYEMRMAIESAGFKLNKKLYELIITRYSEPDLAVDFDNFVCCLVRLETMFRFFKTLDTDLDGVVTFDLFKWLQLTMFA
T1 sequence (P04632 1-268 partner): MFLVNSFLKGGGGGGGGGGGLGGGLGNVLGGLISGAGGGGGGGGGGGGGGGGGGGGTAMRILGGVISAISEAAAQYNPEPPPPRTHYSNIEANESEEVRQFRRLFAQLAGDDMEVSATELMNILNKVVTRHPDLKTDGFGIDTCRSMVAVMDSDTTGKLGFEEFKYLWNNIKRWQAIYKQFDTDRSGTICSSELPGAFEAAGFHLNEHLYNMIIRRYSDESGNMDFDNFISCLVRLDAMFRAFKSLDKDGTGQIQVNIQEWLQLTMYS
Nature of the assay: Calpain inhibition continuous fluorescence (FRET) assay, Human Calpain 1/NS1. The class given is biochemical. As to conditions: read-out: Human Calpain 1/NS1 IC50. A digest of the protocol:
(§1)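 Buffer 50 mM Tris pH 7.5/100 mM NaCl/1 mM DTT; enzyme + cpd preinc 25C; start w/ FRET substrate + CaCl2; kinetic 490/520 nm, 10 min; slopes 1-5 min; 4-PL IC50.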

The target in another assay is T2, Human Calpain 2/NS1 (Homo sapiens, UniProt P17655).
T2 sequence (P17655 1-700): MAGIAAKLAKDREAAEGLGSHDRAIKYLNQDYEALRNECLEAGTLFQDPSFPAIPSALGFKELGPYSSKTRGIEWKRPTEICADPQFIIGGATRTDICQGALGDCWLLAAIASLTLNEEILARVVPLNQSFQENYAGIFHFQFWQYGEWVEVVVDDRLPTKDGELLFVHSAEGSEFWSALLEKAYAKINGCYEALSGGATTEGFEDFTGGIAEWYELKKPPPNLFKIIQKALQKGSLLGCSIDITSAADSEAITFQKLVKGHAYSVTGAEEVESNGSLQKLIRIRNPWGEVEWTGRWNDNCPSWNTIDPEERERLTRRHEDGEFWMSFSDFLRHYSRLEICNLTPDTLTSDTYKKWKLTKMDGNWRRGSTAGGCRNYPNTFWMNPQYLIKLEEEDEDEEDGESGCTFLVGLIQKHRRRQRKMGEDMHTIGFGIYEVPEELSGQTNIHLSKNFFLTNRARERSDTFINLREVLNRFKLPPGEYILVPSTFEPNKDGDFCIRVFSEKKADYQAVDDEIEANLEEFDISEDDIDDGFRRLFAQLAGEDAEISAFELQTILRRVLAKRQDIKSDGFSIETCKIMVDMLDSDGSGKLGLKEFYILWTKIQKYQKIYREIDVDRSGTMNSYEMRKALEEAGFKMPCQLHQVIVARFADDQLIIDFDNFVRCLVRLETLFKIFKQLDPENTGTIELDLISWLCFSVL
T2 sequence (P04632 1-268 partner): T1 sequence (P04632 1-268 partner)
Nature of the assay: Calpain inhibition continuous fluorescence (FRET) assay, Human Calpain 2/NS1. The format is biochemical. The conditions noted are these: read-out: Human Calpain 2/NS1 IC50. In short, it runs like this: as §1

For the next assay, the target named is T3, Human Calpain 9/NS1 (Homo sapiens, UniProt O14815).
T3 sequence (O14815 1-690): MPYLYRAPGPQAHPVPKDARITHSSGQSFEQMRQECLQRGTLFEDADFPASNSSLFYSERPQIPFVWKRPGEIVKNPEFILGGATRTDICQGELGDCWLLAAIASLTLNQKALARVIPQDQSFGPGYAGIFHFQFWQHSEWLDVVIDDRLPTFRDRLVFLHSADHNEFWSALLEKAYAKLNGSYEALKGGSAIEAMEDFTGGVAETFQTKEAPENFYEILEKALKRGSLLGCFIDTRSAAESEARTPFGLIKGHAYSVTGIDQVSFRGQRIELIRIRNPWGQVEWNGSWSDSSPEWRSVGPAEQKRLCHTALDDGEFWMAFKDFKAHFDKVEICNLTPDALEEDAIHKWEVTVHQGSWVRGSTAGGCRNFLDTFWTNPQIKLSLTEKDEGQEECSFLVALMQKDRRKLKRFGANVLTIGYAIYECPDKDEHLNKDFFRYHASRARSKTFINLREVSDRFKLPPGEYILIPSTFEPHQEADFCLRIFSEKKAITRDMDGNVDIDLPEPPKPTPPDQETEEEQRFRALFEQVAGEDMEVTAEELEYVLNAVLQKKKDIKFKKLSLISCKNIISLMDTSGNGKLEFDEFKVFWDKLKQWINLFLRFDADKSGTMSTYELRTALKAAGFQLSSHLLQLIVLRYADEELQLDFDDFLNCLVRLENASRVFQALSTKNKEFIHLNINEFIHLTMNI
T3 sequence (P04632 1-268 partner): T1 sequence (P04632 1-268 partner)
Put plainly: Calpain inhibition continuous fluorescence (FRET) assay, Human Calpain 9/NS1. The class given is biochemical. The conditions noted are these: read-out: Human Calpain 9/NS1 IC50. In short, it runs like this: as §1

Assay [1] has as its system Calpain activity in SH-SY5Y cells (SBDP-150). Nature of the assay: SH-SY5Y Spectrin western blot assay (SBDP-150 breakdown product, A23187-induced). The format is cell-based. As to conditions: read-out: SH-SY5Y Spectrin IC50. In general terms: In western blotting, separated proteins are transferred to a membrane and probed.
Assay [2] has as its system Calpain activity in SH-SY5Y cells. Nature of the assay: SH-SY5Y + AMC fluorescence assay (Suc-LLVY-AMC substrate). The format is cell-based. The conditions noted are these: read-out: SH-SY5Y + AMC IC50.
Setting [3] is: Homo sapiens, SH-SY5Y cells, A23187-induced SBDP-150, western blot.
Setting [4] is: Column D, SH-SY5Y cells, A23187-induced SBDP-150.
Where [5] appears, read: SH-SY5Y cells, A23187-induced SBDP-150, western blot.

pIC50: −log10 of the molar value. Like-named read-outs stand apart in the source and are kept apart here. Where only a bound is given, the exact number is not on record here.

In the case of `Cn1cc(C(=O)NC(Cc2ccccc2)C(=O)C(N)=O)c(N2CCN(C(=O)OC(C)(C)C)CC2)n1` (stereo not drawn) [Compound 603, Tert-Butyl 4-(4-((4-amino-3,4-dioxo-1-phenylbutan-2-yl)carbamoyl)-1-methyl-1H-pyrazol-3-yl)piperazine-1-carboxylate], the pIC50 on Human Calpain 1/NS1 was 5.00 to 5.52; on Human Calpain 2/NS1 it was 5.00 to 5.52; on Human Calpain 9/NS1, 5.00 to 5.52; in assay [1] (Homo sapiens, SH-SY5Y), under 4.60; in assay [2], under 4.60.
On to `Cn1cc(C(=O)NC(Cc2ccccc2)C(=O)C(N)=O)c(-c2ccccc2Cl)n1` (stereo not drawn) [Compound 604, N-(4-amino-3,4-dioxo-1-phenylbutan-2-yl)-3-(2-chlorophenyl)-1-methyl-1H-pyrazole-4-carboxamide], for which the pIC50 on Human Calpain 1/NS1 was over 5.52; at Human Calpain 2/NS1, over 5.52; on Human Calpain 9/NS1 it was over 5.52; in assay [1] (setting [3]), under 4.60; in assay [2], over 5.00.
As to `Cn1cc(C(=O)NC(Cc2ccccc2)C(=O)C(N)=O)c(-c2cnc3ccccc3c2)n1` (stereo not drawn) [Compound 605, N-(4-amino-3,4-dioxo-1-phenylbutan-2-yl)-1-methyl-3-(quinolin-3-yl)-1H-pyrazole-4-carboxamide], the pIC50 at Human Calpain 1/NS1 is over 5.52; at Human Calpain 2/NS1, over 5.52; at Human Calpain 9/NS1, over 5.52; in assay [1] (setting [3]), under 4.60; in assay [2], under 4.60.
As to `Cn1cc(C(=O)NC(Cc2ccccc2)C(=O)C(N)=O)c(-c2cccc3cnccc23)n1` (stereo not drawn) [Compound 607, N-(4-amino-3,4-dioxo-1-phenylbutan-2-yl)-3-(isoquinolin-5-yl)-1-methyl-1H-pyrazole-4-carboxamide], the pIC50 is over 5.52 on Human Calpain 1/NS1; over 5.52 at Human Calpain 2/NS1; over 5.52 on Human Calpain 9/NS1; 4.60 to 5.00 in assay [1] (setting [3]); under 4.60 in assay [2].
As to `NC(=O)C(=O)C(Cc1ccccc1)NC(=O)C1CCCN1c1ccccc1` (stereo not drawn) [compound 541], the pIC50 on Human Calpain 1/NS1 was over 5.52; at Human Calpain 2/NS1 it was over 5.52; on Human Calpain 9/NS1 it was over 5.52; in assay [1] (setting [3]) it was 4.60 to 5.00; in assay [2] it was under 4.60.
For “(S)—N-(4-amino-3,4-dioxo-1-phenylbutan-2-yl)-3-methyl-1-(5-methylpyridin-2-yl)-1H-pyrazole-5-carboxamide [Compound 121]”, the pIC50 at Human Calpain 1/NS1 (Column A) is over 5.52; at Human Calpain 2/NS1 (Column B), over 5.52; on Human Calpain 9/NS1 (Column C), over 5.52; in assay [1] (setting [4]) it was over 5.00; in assay [2] (Column E) it was 4.60 to 5.00.
As for “(S)—N-(4-amino-3,4-dioxo-1-phenylbutan-2-yl)-4-(2-fluorophenyl)-2-methyloxazole-5-carboxamide [Compound 267]”, the pIC50 at Human Calpain 1/NS1 (Column A) is over 5.52; on Human Calpain 2/NS1 (Column B), over 5.52; at Human Calpain 9/NS1 (Column C) it was over 5.52; in assay [1] (setting [4]), 4.60 to 5.00; in assay [2] (Column E), over 5.00.
Turning to “Methyl (S)-(4-(5-((4-amino-3,4-dioxo-1-phenylbutan-2-yl)carbamoyl)-3-methyl-1H-pyrazol-1-yl)benzyl)carbamate [Compound 161]”, the pIC50 on Human Calpain 1/NS1 (Column A) was over 5.52; on Human Calpain 2/NS1 (Column B), over 5.52; on Human Calpain 9/NS1 (Column C), over 5.52; in assay [1] (setting [4]) it was over 5.00; in assay [2] (Column E), under 4.60.
“N-(4-amino-3,4-dioxo-1-phenylbutan-2-yl)-1-(2-cyanopyrimidin-4-yl)-3-methyl-1H-pyrazole-5-carboxamide [Compound 448]”: the pIC50 is over 5.52 at Human Calpain 1/NS1; over 5.52 on Human Calpain 2/NS1; over 5.52 at Human Calpain 9/NS1; over 5.00 in assay [1] (setting [5]); over 5.00 in assay [2].
With “N-(4-amino-3,4-dioxo-1-phenylbutan-2-yl)-1-methyl-3-(5-methylthiophen-2-yl)-1H-pyrazole-4-carboxamide [Compound 505]”, the pIC50 is over 5.52 on Human Calpain 1/NS1; over 5.52 on Human Calpain 2/NS1; over 5.52 at Human Calpain 9/NS1; over 5.00 in assay [1] (setting [5]); under 4.60 in assay [2].
With “N-(4-amino-3,4-dioxo-1-phenylbutan-2-yl)-3-(5-fluoropyridin-3-yl)-1-methyl-1H-pyrazole-4-carboxamide [Compound 506]”, the pIC50 on Human Calpain 1/NS1 is over 5.52; on Human Calpain 2/NS1, over 5.52; at Human Calpain 9/NS1, over 5.52; in assay [1] (setting [5]) it was 4.60 to 5.00; in assay [2] it was 4.60 to 5.00.
In the case of “N-(4-amino-3-hydroxy-4-oxo-1-phenylbutan-2-yl)-4-(4-((benzyloxy)methyl)phenyl)-1,2,5-thiadiazole-3-carboxamide [Compound 369]”, the pIC50 was over 5.52 on Human Calpain 1/NS1; over 5.52 on Human Calpain 2/NS1; over 5.52 on Human Calpain 9/NS1; over 5.00 in assay [1] (setting [5]); under 4.60 in assay [2].
